Results from patent US9393221B2, “Methods and compounds for reducing intracellular lipid storage” (THE GENERAL HOSPITAL CORPORATION, priority 2011, dated 2016).
Where a name gives a salt, the structure may show the parent alone.

Each compound was assayed on ATGL-KO iPSCs (assay: High throughput iPSC chemical screening, Oil Red O (ORO) lipid accumulation). Conditions: not given.
Type: cell-based, mouse
Wherever Z-score is given: test concentration or dose not given here.

Point of comparison: `CNCCC(Oc1ccccc1OC)c1ccccc1` (stereo not shown) [Nisoxetine hydrochloride], Z-score −1.699. Against it:
- Oc1ccc2c3c1O[C@H]1[C@@H](O)CC[C@@]4(O)[C@@H](C2)N(CC2CCC2)CC[C@]314 [Nalbuphine hydrochloride] — higher, −1.0996

Same assay, conditions: glycolytic switch compounds

Point of comparison: `O=C(N/N=C/c1ccc([N+](=O)[O-])o1)c1ccc(O)cc1` [Nifuroxazide], “Rank in normalized ORO score from screen” value 957. Against it:
- CN(C/C=C/c1ccccc1)Cc1cccc2ccccc12 [Naftifine hydrochloride] — lower, 383

Same assay, conditions: normalized ORO level vs DMSO-treated cells; compound present during 7 days differentiation, 96-well; negative = decrease in lipid accumulation

Point of comparison: `Cl.Cl.c1ccc2c3c([nH]c2c1)C1C2CCC(C4CCCNC42)N1CC3` (stereo not shown) [Nitrarine dihydrochloride], Z-score −0.8582. Against it:
- CCOc1ccc2ccccc2c1C(=O)N[C@@H]1C(=O)N2[C@@H]1SC(C)(C)[C@@H]2C(=O)O [Nafcillin sodium salt monohydrate] — higher, −0.1498
- CCN(CC)CCOC(=O)C(Cc1cccc2ccccc12)CC1CCCO1 (stereo not shown) [Nafronyl oxalate] — higher, 0.6546
- CN(C/C=C/c1ccccc1)Cc1cccc2ccccc12 [Naftifine hydrochloride] — higher, −0.6354
- COc1ccccc1N1CCN(CC(O)COc2cccc3ccccc23)CC1 (stereo not shown) [Naftopidil dihydrochloride] — lower, −0.9212
- CCn1cc(C(=O)O)c(=O)c2ccc(C)nc21 [Nalidixic acid sodium salt hydrate] — higher, −0.4868
- C=CCN1CC[C@]23c4c5ccc(O)c4O[C@H]2C(=O)CC[C@@]3(O)[C@H]1C5 [Naloxone hydrochloride] — higher, −0.3899
- O=C1CC[C@@]2(O)[C@H]3Cc4ccc(O)c5c4[C@@]2(CCN3CC2CC2)[C@H]1O5 [Naltrexone hydrochloride dihydrate] — higher, −0.609
- C=C1[C@H]2C[C@@]3([C@@H]1O)[C@@H](C[C@@H]2O)[C@]12[C@@H]4C[C@H]3[C@H]1N(CC)C[C@]4(C)CC[C@@H]2O [Napelline] — lower, −1.869
- c1ccc2c(CC3=NCCN3)cccc2c1 [Naphazoline hydrochloride] — higher, −0.8458
- COc1ccc2cc([C@H](C)C(=O)O)ccc2c1 [Naproxen] — higher, −0.3678
- O=C1C[C@@H](c2ccc(O)cc2)Oc2cc(O)cc(O)c21 [Naringenine] — higher, 1.336
- C[C@@H]1O[C@@H](O[C@H]2[C@H](Oc3cc(O)c4c(c3)O[C@H](c3ccc(O)cc3)CC4=O)O[C@H](CO)[C@@H](O)[C@@H]2O)[C@H](O)[C@H](O)[C@H]1O [Naringin hydrate] — higher, 2.68
- C[C@@H]1C/C=C/C=C/C=C/C=C/[C@H](O[C@@H]2O[C@H](C)[C@@H](O)[C@H](N)[C@@H]2O)C[C@@H]2O[C@](O)(C[C@@H](O)C[C@H]3O[C@@H]3/C=C/C(=O)O1)C[C@H](O)[C@H]2C(=O)O [Natamycin] — higher, 0.06039
- CN1CCOC(c2ccccc2)c2ccccc2C1 (stereo not shown) [Nefopam hydrochloride] — higher, −0.0308
- NC[C@@H]1O[C@H](O[C@H]2[C@@H](O)[C@H](O[C@@H]3[C@@H](O)[C@H](N)C[C@H](N)[C@H]3O[C@H]3O[C@H](CN)[C@@H](O)[C@H](O)[C@H]3N)O[C@@H]2CO)[C@H](N)[C@@H](O)[C@@H]1O.O=S(=O)(O)O [Neomycin sulfate] — higher, −0.2127
- CN(C)C(=O)Oc1cccc([N+](C)(C)C)c1 [Neostigmine bromide] — higher, 1.386
- CCN[C@@H]1C[C@H](N)[C@@H](O[C@H]2OC(CN)=CC[C@H]2N)[C@H](O)[C@H]1O[C@H]1OC[C@](C)(O)[C@H](NC)[C@H]1O.CCN[C@@H]1C[C@H](N)[C@@H](O[C@H]2OC(CN)=CC[C@H]2N)[C@H](O)[C@H]1O[C@H]1OC[C@](C)(O)[C@H](NC)[C@H]1O.O=S(=O)(O)O.O=S(=O)(O)O.O=S(=O)(O)O.O=S(=O)(O)O.O=S(=O)(O)O [Netilmicin sulfate] — higher, 1.062
- O=C(O)c1cccnc1 [Niacin] — higher, −0.8285
- O=C(CCNNC(=O)c1ccncc1)NCc1ccccc1 [Nialamide] — higher, 0.6794
- COC(=O)C1=C(C)NC(C)=C(C(=O)OCCN(C)Cc2ccccc2)C1c1cccc([N+](=O)[O-])c1 (stereo not shown) [Nicardipine hydrochloride] — higher, 1.451
- CO[C@]12C[C@@H](COC(=O)c3cncc(Br)c3)CN(C)[C@@H]1Cc1cn(C)c3cccc2c13 [Nicergoline] — higher, 0.2433
- O=C(Nc1ccc([N+](=O)[O-])cc1Cl)c1cc(Cl)ccc1O [Niclosamide] — higher, 25.4633
- Cc1c(NC(=O)c2cccnc2)c(=O)n(-c2ccccc2)n1C [Nifenazone] — higher, 0.1131
- O=C(O)c1cccnc1Nc1cccc(C(F)(F)F)c1 [Niflumic acid] — higher, −0.6436
- O=C(N/N=C/c1ccc([N+](=O)[O-])o1)c1ccc(O)cc1 [Nifuroxazide] — higher, 1.279
- CC1CS(=O)(=O)CCN1/N=C/c1ccc([N+](=O)[O-])o1 (stereo not shown) [Nifurtimox] — higher, 0.2485
- CC1(C)NC(=O)N(c2ccc([N+](=O)[O-])c(C(F)(F)F)c2)C1=O [Nilutamide] — lower, −1.5582
- CS(=O)(=O)Nc1ccc([N+](=O)[O-])cc1Oc1ccccc1 [Nimesulide] — lower, −1.0153
- COCCOC(=O)C1=C(C)NC(C)=C(C(=O)OC(C)C)C1c1cccc([N+](=O)[O-])c1 (stereo not shown) [Nimodipine] — lower, −1.6971
- O=C1NCCN1c1ncc([N+](=O)[O-])s1 [Niridazole] — higher, 1.446
- CCOC(=O)C1=C(C)NC(C)=C(C(=O)OC)C1c1cccc([N+](=O)[O-])c1 (stereo not shown) [Nitrendipine] — lower, −1.7782
- CCN(CC)CCOC(=O)C1(c2ccc([N+](=O)[O-])cc2)CCCC1.Cl [Nitrocaramiphen hydrochloride] — lower, −1.1255
- NC(=O)N/N=C/c1ccc([N+](=O)[O-])o1 [Nitrofural] — lower, −0.866
- O=C1CN(/N=C/c2ccc([N+](=O)[O-])o2)C(=O)N1 [Nitrofurantoin] — higher, 0.3631
- CNC(=C[N+](=O)[O-])NCCSCc1csc(CN(C)C)n1 [Nizatidine] — higher, −0.1369
- COC(=O)Nc1nc2ccc(C(=O)c3cccs3)cc2[nH]1 [Nocodazole] — higher, 18.0445
- CC(=O)O[C@]1(C(C)=O)CC[C@H]2[C@@H]3C=C(C)C4=CC(=O)CC[C@@H]4[C@H]3CC[C@@]21C [Nomegestrol acetate] — higher, 1.552
- CN1Cc2c(N)cccc2C(c2ccccc2)C1 (stereo not shown) [Nomifensine maleate] — lower, −1.3149
- CNCCC=C1c2ccccc2C=Cc2ccccc21 [Norcyclobenzaprine] — higher, −0.6046
- C#C[C@]1(O)CC[C@H]2[C@@H]3CCC4=CC(=O)CC[C@@H]4[C@H]3CC[C@@]21C [Norethindrone] — higher, −0.6688
- C#C[C@]1(O)CC[C@H]2[C@@H]3CCC4=C(CCC(=O)C4)[C@H]3CC[C@@]21C [Norethynodrel] — higher, −0.7872
- CCn1cc(C(=O)O)c(=O)c2cc(F)c(N3CCNCC3)cc21 [Norfloxacin] — higher, 0.6666
- C#C[C@]1(O)CC[C@H]2[C@@H]3CCC4=CC(=O)CC[C@@H]4[C@H]3CC[C@@]21CC [Norgestrel-(−)-D] — higher, 1.412
- CNCCC=C1c2ccccc2CCc2ccccc21 [Nortriptyline hydrochloride] — lower, −1.28
- COc1ccc2c(c1OC)C(=O)O[C@@H]2[C@H]1c2c(cc3c(c2OC)OCO3)CCN1C [Noscapine] — higher, 0.8948
- CO[C@@H]1[C@@H](OC(N)=O)[C@@H](O)[C@H](Oc2ccc3c(O)c(NC(=O)c4ccc(O)c(CC=C(C)C)c4)c(=O)oc3c2C)OC1(C)C [Novobiocin sodium salt] — lower, −1.5591
- C[C@@H]1[C@H](O)[C@@H](C)/C=C/C=C/CC/C=C/C=C/C=C/C=C/C(O[C@H]2O[C@H](C)[C@@H](O)[C@H](N)[C@@H]2O)CC2O[C@](O)(CC(O)C(O)CCC(O)CC(O)CC(O)CC(=O)O[C@H]1C)CC(O)C2C(=O)O (stereo partly shown) [Nystatine] — higher, −0.6743
- CC1COc2c(N3CCN(C)CC3)c(F)cc3c(=O)c(C(=O)O)cn1c23 (stereo not shown) [Ofloxacin] — higher, 0.7623
- CO[C@H]1C[C@H](O[C@H]2[C@H](C)[C@@H](O[C@@H]3O[C@H](C)C[C@H](N(C)C)[C@H]3O)[C@@H](C)C[C@@]3(CO3)C(=O)[C@H](C)[C@@H](O)[C@@H](C)[C@@H](C)OC(=O)[C@@H]2C)O[C@@H](C)[C@@H]1O [Oleandomycin phosphate] — higher, 0.5069
- COc1ccc2[nH]c([S+]([O-])Cc3ncc(C)c(OC)c3C)nc2c1 (stereo not shown) [Omeprazole] — higher, −0.5848
- Cc1nccn1CC1CCc2c(c3ccccc3n2C)C1=O (stereo not shown) [Ondansetron Hydrochloride] — higher, −0.6933
- Cc1ncc([N+](=O)[O-])n1CC(O)CCl (stereo not shown) [Ornidazole] — higher, 0.7824
- Cc1ccccc1C(OCCN(C)C)c1ccccc1 (stereo not shown) [Orphenadrine hydrochloride] — higher, −0.3046
- CCN(CC)CCc1nc(-c2ccccc2)no1.O=C(O)CC(O)(CC(=O)O)C(=O)O [Oxalamine citrate salt] — lower, −1.3452
- CN1CCCN=C1/C=C/c1cccc(O)c1.O=C(O)c1cc2ccccc2c(Cc2c(O)c(C(=O)O)cc3ccccc23)c1O [Oxantel pamoate] — higher, 1.422
- O=C(O)CCc1nc(-c2ccccc2)c(-c2ccccc2)o1 [Oxaprozin] — lower, −1.009
- CN(C(=O)CN(CCO)CC(=O)N(C)C(C)(C)Cc1ccccc1)C(C)(C)Cc1ccccc1 [Oxethazaine] — lower, −0.9515
- CCn1cc(C(=O)O)c(=O)c2cc3c(cc21)OCO3 [Oxolinic acid] — lower, −1.0488
- C=CCOc1ccccc1OCC(O)CNC(C)C (stereo not shown) [Oxprenolol hydrochloride] — higher, −0.2057
- COc1ccc(C(=O)c2ccccc2)c(O)c1 [Oxybenzone] — lower, −1.1732
- CCN(CC)CC#CCOC(=O)C(O)(c1ccccc1)C1CCCCC1 (stereo not shown) [Oxybutynin chloride] — lower, −1.0993
- Cc1cc(C(C)(C)C)c(O)c(C)c1CC1=NCCN1 [Oxymetazoline hydrochloride] — higher, 0.1199
- CCCCC1C(=O)N(c2ccccc2)N(c2ccc(O)cc2)C1=O (stereo not shown) [Oxyphenbutazone] — lower, −1.1165
- CN(C)[C@@H]1C(O)=C(C(N)=O)C(=O)[C@@]2(O)C(O)=C3C(=O)c4c(O)cccc4[C@@](C)(O)[C@H]3[C@H](O)[C@@H]12 [Oxytetracycline dihydrate] — higher, 1.185
- O=C(O)/C=C/c1ccc(Cn2ccnc2)cc1 [Ozagrel hydrochloride] — higher, −0.6787
